From article PMC8119466, “A screen of FDA-approved drugs identifies inhibitors of protein tyrosine phosphatase 4A3 (PTP4A3 or PRL-3)” (Scientific Reports, 2021)
Counter-ions that a name gives are not always drawn. Starred links: 1 amine or outer side, 2 acyl side, 3 side chain; linkers in the order of their positions; H or OH if unused. Positions of bridges follow the written chain, without caps; N, C: chain ends. Non-standard residues stand in square brackets, D forms with d. Residues, ends and D or L forms follow the SMILES beside them. *: point of attachment. pTerphenylCO(4''-OnC5H11) = CCCCCOc1ccc(-c2ccc(-c3ccc(C(=O)*)cc3)cc2)cc1; Orn(4R-OH,5R-OH) = O=C([C@H](C[C@@H](O)[C@@H](O)N[*:3])N[*:1])[*:2]; hTyr(3S-OH,4S-OH) = N[C@H](C(=O)O)[C@H](O)[C@@H](O)c1ccc(O)cc1; Pro(3S-OH,4S-Me) = C[C@H]1CN[C@H](C(=O)O)[C@H]1O; Hyp = O=C(O)[C@@H]1C[C@@H](O)CN1

Key:
Type in all cases: biochemical
Details in all cases: FDA-approved drug screen; compared to DMSO
recombinant PRL-2 = biological target: T1, recombinant PRL-2 (Homo sapiens, UniProt Q12974); assay: In vitro phosphatase assay (DiFMUP hydrolysis), PRL-2;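 also: PRL-2 activity read as DiFMUP hydrolysis after 20 min at room temperature with drug, enzyme first pre-reduced at 4 °C for 20 min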
T1 construct: 6xHis (N, cleaved yes); made in house; host or cells: E. coli One Shot BL21 Star
T1 sequence (Q12974 1-167): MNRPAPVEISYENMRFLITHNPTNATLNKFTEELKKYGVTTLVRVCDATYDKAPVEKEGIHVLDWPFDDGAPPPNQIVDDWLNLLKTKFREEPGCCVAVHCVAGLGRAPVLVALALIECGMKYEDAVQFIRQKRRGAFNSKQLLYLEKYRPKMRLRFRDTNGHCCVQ

recombinant PRL-1 = biological target: T2, recombinant PRL-1 (Homo sapiens, UniProt Q93096); assay: In vitro phosphatase assay (DiFMUP hydrolysis), PRL-1; also: test concentration or dose not given here
T2 construct: 6xHis (N, cleaved yes); made in house; host or cells: E. coli One Shot BL21 Star
T2 sequence (Q93096 1-173): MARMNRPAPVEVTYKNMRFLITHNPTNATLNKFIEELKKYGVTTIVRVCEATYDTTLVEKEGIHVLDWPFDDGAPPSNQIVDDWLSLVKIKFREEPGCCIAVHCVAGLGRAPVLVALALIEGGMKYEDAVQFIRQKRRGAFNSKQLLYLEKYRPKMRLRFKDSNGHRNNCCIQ

recombinant PRL-3 = biological target: T3, recombinant PRL-3 (Homo sapiens, UniProt O75365); assay: In vitro phosphatase assay (DiFMUP hydrolysis), PRL-3; also: test concentration or dose not given here
T3 construct: 6xHis (N, cleaved yes); made in house; host or cells: E. coli One Shot BL21 Star
T3 sequence (O75365 whole entry): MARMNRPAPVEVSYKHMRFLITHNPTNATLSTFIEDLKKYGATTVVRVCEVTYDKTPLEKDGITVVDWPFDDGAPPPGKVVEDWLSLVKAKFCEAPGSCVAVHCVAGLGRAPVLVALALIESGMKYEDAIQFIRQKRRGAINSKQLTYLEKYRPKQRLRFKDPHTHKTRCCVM

Compound	% Phosphatase Activity (compared to DMSO) PRL-2 (recombinant PRL-2) [%]	% Phosphatase Activity (compared to DMSO) PRL-1 (recombinant PRL-1) [%]	% Phosphatase Activity (compared to DMSO) PRL-3 (recombinant PRL-3) [%]
CC(C)CN(C[C@@H](O)[C@H](Cc1ccccc1)NC(=O)O[C@H]1CCOC1)S(=O)(=O)c1ccc(N)cc1 [Amprenavir]	81	96	77
CCCc1ncc(C[n+]2ccccc2C)c(N)n1.Cl.[Cl-] [Amprolium HCl]	97	97	94
S=C(NCc1ccc2c(c1)OCO2)N1CCN(c2ncnc3c2oc2ccccc23)CC1 [Amuvatinib (MP-470)]	100	90	76
O=C1CN2Cc3c(ccc(Cl)c3Cl)N=C2N1 [Anagrelide HCl]	91	93	80
CC(C)(C#N)c1cc(Cn2cncn2)cc(C(C)(C)C#N)c1 [Anastrozole]	122	106	96
CCCCCOc1ccc(-c2ccc(-c3ccc(C(=O)N[C@H]4C[C@@H](O)[C@@H](O)NC(=O)[C@@H]5[C@@H](O)[C@@H](C)CN5C(=O)[C@H]([C@@H](C)O)NC(=O)[C@H]([C@H](O)[C@@H](O)c5ccc(O)cc5)NC(=O)[C@@H]5C[C@@H](O)CN5C(=O)[C@H]([C@@H](C)O)NC4=O)cc3)cc2)cc1 [Anidulafungin (LY303366)] ({pTerphenylCO(4''-OnC5H11)}-[Orn(4R-OH,5R-OH)]T[Hyp][hTyr(3S-OH,4S-OH)]T[Pro(3S-OH,4S-Me)]; lactam 1-C)	568	569	623
COc1ccc(C(=O)N2CCCC2=O)cc1 [Aniracetam]	104	102	75
CCCC(CCC)C(=O)O[C@H]1C[C@H]2CC[C@@H](C1)[N+]2(C)C [Anisotropine Methylbromide]	108	111	77
c1ccc(CN(CC2=NCCN2)c2ccccc2)cc1 [Antazoline HCl]	104	91	76
Cc1cc(=O)n(-c2ccccc2)n1C [Antipyrine]	107	98	87
N#CC1(c2ccc(NC(=O)c3cccnc3NCc3ccncc3)cc2)CCCC1 [Apatinib]	106	100	88
COc1ccc(-n2nc(C(N)=O)c3c2C(=O)N(c2ccc(N4CCCCC4=O)cc2)CC3)cc1 [Apixaban]	132	102	80
CCOc1cc([C@@H](CS(C)(=O)=O)N2C(=O)c3cccc(NC(C)=O)c3C2=O)ccc1OC [Apremilast (CC-10004)]	78	100	86
C[C@@H](O[C@H]1OCCN(Cc2n[nH]c(=O)[nH]2)[C@H]1c1ccc(F)cc1)c1cc(C(F)(F)F)cc(C(F)(F)F)c1 [Aprepitant]	94	104	80
CN(C)CCOC(c1ccc(Cl)cc1)c1ccccn1.O=C(O)/C=C\C(=O)O (stereo not drawn) [ArbinoxaMine Maleate]	77	100	91
COC(=O)C1=CCCN(C)C1 [Arecoline]	131	98	84
